Key:
[1] = tested on: Ebola virus (EBOV/May-eGFP); assay: microbe, parasite or virus in culture; format: cell-based; conditions: Zaire ebolavirus, read-out: IC50, EBOV infection inhibition
[2] = tested on: SARS CoV-2 (USA_WA1/2020); format: cell-based
cell viability = assay: ATP content assay for cell viability and compound cytotoxicity

SMILES | IC50 [1] | selectivity index (SI) [2] | IC50 ([2]; read-out: IC50, SARS-CoV-2 CPE assay) | inhibition of cell viability (slight cytotoxicity) (cell viability; maximal effect) | IC50 (cell viability; read-out: cytotoxicity IC50 (cell viability), counter assay to CPE)
CCOC(=O)c1c(CSc2ccccc2)n(C)c2cc(Br)c(O)c(CN(C)C)c12 [umifenovir] | ≤ 5 µM | – | – | – | –
CC(C(O)c1ccccc1)N(C)CCOC(c1ccccc1)c1ccccc1 (stereo not drawn) [difeterol] | ≤ 5 µM | – | – | – | –
Cc1cccc(C=NNc2cc(N3CCOCC3)nc(N3CCOCC3)n2)c1 [MLS000699212-03, Benzaldehyde, 3-methyl-, 2-(2,6-di-4-morpholinyl-4-pyrimidinyl) hydrazone] | – | 28 | 500 nM | 55% | 14 µM
